Results from ChEMBL document CHEMBL5649169 (ChemMedChem, 2018).

Experiments:
[1] = molecular target: Guanine nucleotide-binding protein G(i) subunit alpha-2 (Homo sapiens) (UniProt P04899)
[2] = molecular target: Dolichyl-diphosphooligosaccharide--protein glycosyltransferase subunit 2 (Homo sapiens) (UniProt P04844)
[3] = molecular target: LIM domain kinase 2 (Homo sapiens) (UniProt P53671)
[4] = molecular target: Desmoplakin (Homo sapiens) (UniProt P15924)
[5] = molecular target: Coatomer subunit beta (Homo sapiens) (UniProt P53618)
[6] = molecular target: 26S proteasome non-ATPase regulatory subunit 1 (Homo sapiens) (UniProt Q99460)
[7] = molecular target: Cathepsin D (Homo sapiens) (UniProt P07339)
[8] = molecular target: Cell division cycle 5-like protein (Homo sapiens) (UniProt Q99459)
[9] = molecular target: 7-dehydrocholesterol reductase (Homo sapiens) (UniProt Q9UBM7)
[10] = molecular target: X-ray repair cross-complementing protein 5 (Homo sapiens) (UniProt P13010)
[11] = molecular target: Cold shock domain-containing protein E1 (Homo sapiens) (UniProt O75534)
[12] = molecular target: Small ribosomal subunit protein uS7 (Homo sapiens) (UniProt P46782)
[13] = molecular target: Putative divalent cation/proton antiporter TMEM165 (Homo sapiens) (UniProt Q9HC07)
[14] = molecular target: CYFIP-related Rac1 interactor B (Homo sapiens) (UniProt Q9NUQ9)
[15] = molecular target: Heterogeneous nuclear ribonucleoprotein A0 (Homo sapiens) (UniProt Q13151)
[16] = organism: Homo sapiens
[17] = molecular target: Serine hydroxymethyltransferase, mitochondrial (Homo sapiens) (UniProt P34897)
[18] = molecular target: 26S proteasome regulatory subunit 7 (Homo sapiens) (UniProt P35998)
[19] = molecular target: Very-long-chain 3-oxoacyl-CoA reductase (Homo sapiens) (UniProt Q53GQ0)
[20] = molecular target: Casein kinase II subunit beta (Homo sapiens) (UniProt P67870)
[21] = molecular target: Eukaryotic translation initiation factor 3 subunit E (Homo sapiens) (UniProt P60228)
[22] = molecular target: Fatty acid CoA ligase Acsl3 (Homo sapiens) (UniProt O95573)
[23] = molecular target: Serine/threonine-protein kinase TAO1 (Homo sapiens) (UniProt Q7L7X3)
[24] = molecular target: S-adenosylmethionine synthase isoform type-2 (Homo sapiens) (UniProt P31153)
[25] = molecular target: Splicing factor 3B subunit 3 (Homo sapiens) (UniProt Q15393)
[26] = molecular target: DNA damage-binding protein 1 (Homo sapiens) (UniProt Q16531)
[27] = molecular target: Rho-associated protein kinase 1 (Homo sapiens) (UniProt Q13464)
[28] = molecular target: Nucleoside diphosphate kinase A (Homo sapiens) (UniProt P15531)
[29] = molecular target: Heat shock protein beta-1 (Homo sapiens) (UniProt P04792)
[30] = molecular target: Galectin-3-binding protein (Homo sapiens) (UniProt Q08380)
[31] = molecular target: ADP/ATP translocase 2 (Homo sapiens) (UniProt P05141)
[32] = molecular target: Lupus La protein (Homo sapiens) (UniProt P05455)
[33] = molecular target: Single-stranded DNA-binding protein, mitochondrial (Homo sapiens) (UniProt Q04837)
[34] = molecular target: Eukaryotic translation initiation factor 3 subunit A (Homo sapiens) (UniProt Q14152)
[35] = molecular target: RuvB-like 2 (Homo sapiens) (UniProt Q9Y230)
[36] = molecular target: TANK-binding kinase 1-binding protein 1 (Homo sapiens) (UniProt A7MCY6)
[37] = molecular target: Chromodomain-helicase-DNA-binding protein 4 (Homo sapiens) (UniProt Q14839)
[38] = organism: Homo sapiens; remark: listed apart in the source
[39] = molecular target: Serine/threonine-protein kinase B-raf (Homo sapiens) (UniProt P15056)
[40] = organism: Homo sapiens; remark: listed apart in the source
[41] = molecular target: S-phase kinase-associated protein 2 (Homo sapiens) (UniProt Q13309)
[42] = molecular target: Large ribosomal subunit protein eL20 (Homo sapiens) (UniProt Q02543)
[43] = molecular target: Peroxisomal multifunctional enzyme type 2 (Homo sapiens) (UniProt P51659)
[44] = molecular target: Protein LSM12 (Homo sapiens) (UniProt Q3MHD2)
[45] = molecular target: Lamin-B1 (Homo sapiens) (UniProt P20700)
[46] = molecular target: Nuclear pore complex protein Nup155 (Homo sapiens) (UniProt O75694)
[47] = molecular target: Cullin-1 (Homo sapiens) (UniProt Q13616)
[48] = molecular target: Receptor-interacting serine/threonine-protein kinase 3 (Homo sapiens) (UniProt Q9Y572)
Note: assay method not described here.

Sequence of Serine/threonine-protein kinase B-raf (Homo sapiens) (P15056 whole entry): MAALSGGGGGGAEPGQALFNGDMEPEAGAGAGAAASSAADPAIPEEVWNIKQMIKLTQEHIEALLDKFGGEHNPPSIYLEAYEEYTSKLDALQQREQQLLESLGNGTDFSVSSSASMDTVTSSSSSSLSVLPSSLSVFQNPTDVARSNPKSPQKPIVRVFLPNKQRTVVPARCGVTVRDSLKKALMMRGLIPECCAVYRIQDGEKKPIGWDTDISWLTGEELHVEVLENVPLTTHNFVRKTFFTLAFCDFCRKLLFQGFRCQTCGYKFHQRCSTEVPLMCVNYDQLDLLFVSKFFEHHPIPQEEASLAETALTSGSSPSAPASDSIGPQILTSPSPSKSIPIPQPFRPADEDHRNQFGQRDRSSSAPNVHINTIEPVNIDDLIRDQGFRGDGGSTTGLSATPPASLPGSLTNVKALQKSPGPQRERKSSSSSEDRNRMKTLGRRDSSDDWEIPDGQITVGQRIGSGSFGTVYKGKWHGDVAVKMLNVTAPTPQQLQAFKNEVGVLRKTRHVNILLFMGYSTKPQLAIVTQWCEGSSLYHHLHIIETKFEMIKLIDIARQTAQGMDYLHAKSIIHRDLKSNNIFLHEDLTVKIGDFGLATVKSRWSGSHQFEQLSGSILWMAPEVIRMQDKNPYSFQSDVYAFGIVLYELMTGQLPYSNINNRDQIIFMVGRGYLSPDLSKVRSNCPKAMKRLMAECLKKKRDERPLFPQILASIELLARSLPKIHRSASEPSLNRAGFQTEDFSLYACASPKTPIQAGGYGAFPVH
Sequence of Heterogeneous nuclear ribonucleoprotein A0 (Homo sapiens) (Q13151 whole entry): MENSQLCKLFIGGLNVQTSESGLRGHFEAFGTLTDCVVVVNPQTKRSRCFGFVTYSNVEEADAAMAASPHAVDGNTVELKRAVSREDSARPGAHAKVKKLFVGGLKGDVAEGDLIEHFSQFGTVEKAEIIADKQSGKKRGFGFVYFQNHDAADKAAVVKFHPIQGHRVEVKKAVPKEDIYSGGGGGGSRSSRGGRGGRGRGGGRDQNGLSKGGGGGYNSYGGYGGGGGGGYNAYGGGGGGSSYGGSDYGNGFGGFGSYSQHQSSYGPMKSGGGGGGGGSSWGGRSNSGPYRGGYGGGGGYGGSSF
Sequence of Serine/threonine-protein kinase TAO1 (Homo sapiens) (Q7L7X3 whole entry, canonical isoform): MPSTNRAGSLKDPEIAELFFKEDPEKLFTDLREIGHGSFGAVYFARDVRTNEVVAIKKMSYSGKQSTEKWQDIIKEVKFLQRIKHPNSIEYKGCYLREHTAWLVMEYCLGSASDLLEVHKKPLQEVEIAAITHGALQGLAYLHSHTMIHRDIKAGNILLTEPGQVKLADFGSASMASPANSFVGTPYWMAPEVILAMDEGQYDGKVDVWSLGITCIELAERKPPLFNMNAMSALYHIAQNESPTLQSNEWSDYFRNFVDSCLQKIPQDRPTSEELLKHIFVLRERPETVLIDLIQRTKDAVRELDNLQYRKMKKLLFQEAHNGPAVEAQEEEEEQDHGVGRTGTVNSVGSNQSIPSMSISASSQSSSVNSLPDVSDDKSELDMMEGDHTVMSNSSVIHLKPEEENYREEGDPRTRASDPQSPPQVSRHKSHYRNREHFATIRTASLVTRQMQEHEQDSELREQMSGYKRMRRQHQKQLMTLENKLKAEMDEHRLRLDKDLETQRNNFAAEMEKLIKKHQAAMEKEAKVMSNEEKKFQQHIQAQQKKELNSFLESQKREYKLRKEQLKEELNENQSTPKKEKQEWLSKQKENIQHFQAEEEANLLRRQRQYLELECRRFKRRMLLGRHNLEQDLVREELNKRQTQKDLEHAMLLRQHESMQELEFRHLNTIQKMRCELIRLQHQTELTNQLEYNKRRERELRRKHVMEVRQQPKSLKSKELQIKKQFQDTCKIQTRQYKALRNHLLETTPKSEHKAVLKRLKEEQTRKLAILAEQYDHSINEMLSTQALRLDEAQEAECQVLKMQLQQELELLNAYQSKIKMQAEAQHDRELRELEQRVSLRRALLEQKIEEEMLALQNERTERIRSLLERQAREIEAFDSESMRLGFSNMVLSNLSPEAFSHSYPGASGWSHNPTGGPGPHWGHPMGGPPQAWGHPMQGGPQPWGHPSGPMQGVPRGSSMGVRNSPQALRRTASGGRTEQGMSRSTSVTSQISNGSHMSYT
Sequence of Galectin-3-binding protein (Homo sapiens) (Q08380 whole entry): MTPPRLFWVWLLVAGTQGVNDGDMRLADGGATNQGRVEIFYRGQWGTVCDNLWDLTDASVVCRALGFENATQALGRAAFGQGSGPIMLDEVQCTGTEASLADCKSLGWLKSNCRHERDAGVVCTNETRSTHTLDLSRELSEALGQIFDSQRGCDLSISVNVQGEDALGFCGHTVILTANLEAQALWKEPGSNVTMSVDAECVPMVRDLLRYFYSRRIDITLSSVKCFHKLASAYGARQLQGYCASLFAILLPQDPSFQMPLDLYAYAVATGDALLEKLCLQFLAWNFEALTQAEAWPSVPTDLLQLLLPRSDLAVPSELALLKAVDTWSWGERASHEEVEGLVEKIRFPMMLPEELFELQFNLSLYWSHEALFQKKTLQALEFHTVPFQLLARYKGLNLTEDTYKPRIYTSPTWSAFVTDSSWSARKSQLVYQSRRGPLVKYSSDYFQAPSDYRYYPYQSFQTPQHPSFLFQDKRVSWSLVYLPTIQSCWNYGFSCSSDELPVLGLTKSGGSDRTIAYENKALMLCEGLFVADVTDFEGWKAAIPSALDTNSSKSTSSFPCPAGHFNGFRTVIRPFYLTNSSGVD
Sequence of 26S proteasome regulatory subunit 7 (Homo sapiens) (P35998 whole entry): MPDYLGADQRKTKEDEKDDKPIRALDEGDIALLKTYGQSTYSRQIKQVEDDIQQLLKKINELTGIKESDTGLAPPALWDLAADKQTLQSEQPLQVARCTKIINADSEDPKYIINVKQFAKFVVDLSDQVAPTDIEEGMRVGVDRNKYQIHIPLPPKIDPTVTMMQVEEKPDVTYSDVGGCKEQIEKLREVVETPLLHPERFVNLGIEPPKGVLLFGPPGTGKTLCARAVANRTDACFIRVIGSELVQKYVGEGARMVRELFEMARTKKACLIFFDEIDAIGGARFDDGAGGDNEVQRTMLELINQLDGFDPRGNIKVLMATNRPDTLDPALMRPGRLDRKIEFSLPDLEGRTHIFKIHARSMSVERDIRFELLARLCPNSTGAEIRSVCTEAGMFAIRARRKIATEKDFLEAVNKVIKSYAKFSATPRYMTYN
Sequence of Nucleoside diphosphate kinase A (Homo sapiens) (P15531 whole entry): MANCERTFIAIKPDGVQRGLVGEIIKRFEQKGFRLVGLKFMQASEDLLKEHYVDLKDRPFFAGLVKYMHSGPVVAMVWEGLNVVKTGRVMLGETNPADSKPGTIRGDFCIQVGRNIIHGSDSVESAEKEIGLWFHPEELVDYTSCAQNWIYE
Sequence of Serine hydroxymethyltransferase, mitochondrial (Homo sapiens) (P34897 whole entry): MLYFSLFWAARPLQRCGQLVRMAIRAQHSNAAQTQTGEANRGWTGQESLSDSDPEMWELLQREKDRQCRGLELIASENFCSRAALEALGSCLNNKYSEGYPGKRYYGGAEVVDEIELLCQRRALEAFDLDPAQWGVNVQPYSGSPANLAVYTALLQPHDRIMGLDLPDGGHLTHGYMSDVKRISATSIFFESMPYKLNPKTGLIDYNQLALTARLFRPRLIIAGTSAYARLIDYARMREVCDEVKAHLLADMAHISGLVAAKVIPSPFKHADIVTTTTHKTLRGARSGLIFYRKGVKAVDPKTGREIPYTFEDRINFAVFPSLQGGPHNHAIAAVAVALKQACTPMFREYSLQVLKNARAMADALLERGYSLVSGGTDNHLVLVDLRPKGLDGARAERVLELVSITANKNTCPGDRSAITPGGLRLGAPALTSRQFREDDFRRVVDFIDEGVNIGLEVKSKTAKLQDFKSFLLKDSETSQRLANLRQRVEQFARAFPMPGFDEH
Sequence of Cathepsin D (Homo sapiens) (P07339 65-162 limits assumed): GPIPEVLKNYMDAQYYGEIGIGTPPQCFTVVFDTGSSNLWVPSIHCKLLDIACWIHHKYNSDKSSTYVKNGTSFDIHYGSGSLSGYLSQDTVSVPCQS
Sequence of Cathepsin D (Homo sapiens) (P07339 169-412 limits assumed): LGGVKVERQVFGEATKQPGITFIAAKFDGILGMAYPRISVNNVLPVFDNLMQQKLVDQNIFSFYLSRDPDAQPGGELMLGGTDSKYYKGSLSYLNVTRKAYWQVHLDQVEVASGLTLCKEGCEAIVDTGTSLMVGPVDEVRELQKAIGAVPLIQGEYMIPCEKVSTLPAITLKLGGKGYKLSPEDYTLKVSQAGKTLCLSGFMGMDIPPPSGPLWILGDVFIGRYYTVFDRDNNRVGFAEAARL
Sequence of Fatty acid CoA ligase Acsl3 (Homo sapiens) (O95573 whole entry): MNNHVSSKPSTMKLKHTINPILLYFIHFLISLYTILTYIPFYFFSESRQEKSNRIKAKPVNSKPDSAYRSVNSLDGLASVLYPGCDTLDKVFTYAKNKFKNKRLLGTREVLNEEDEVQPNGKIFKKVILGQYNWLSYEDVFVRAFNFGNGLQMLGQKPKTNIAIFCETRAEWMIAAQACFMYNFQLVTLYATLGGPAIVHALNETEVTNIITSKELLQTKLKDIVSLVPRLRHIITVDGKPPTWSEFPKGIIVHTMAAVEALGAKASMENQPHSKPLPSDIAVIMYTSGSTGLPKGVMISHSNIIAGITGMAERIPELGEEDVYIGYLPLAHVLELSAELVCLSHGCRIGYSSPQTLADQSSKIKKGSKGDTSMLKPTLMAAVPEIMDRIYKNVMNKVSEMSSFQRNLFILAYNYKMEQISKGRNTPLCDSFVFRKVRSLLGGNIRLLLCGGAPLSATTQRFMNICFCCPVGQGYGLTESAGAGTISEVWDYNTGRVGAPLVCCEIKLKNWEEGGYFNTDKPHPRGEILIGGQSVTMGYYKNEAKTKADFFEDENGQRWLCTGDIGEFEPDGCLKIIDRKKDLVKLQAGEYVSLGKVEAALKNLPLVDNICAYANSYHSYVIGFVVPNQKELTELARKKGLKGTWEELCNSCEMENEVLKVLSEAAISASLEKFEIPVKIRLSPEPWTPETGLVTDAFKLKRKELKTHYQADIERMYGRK
Sequence of Single-stranded DNA-binding protein, mitochondrial (Homo sapiens) (Q04837 whole entry): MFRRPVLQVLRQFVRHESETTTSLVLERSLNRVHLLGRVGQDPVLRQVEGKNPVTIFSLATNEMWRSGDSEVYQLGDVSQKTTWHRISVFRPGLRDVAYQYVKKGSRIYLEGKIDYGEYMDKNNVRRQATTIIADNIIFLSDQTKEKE

SMILES: Cc1ccc(C(=O)Nc2cccc(C(F)(F)F)c2)cc1Nc1nc(-c2cccnc2)nc2c1cnn2C
- ED50 [1]: 0.335 µM
- ED50 [2]: 0.874 µM
- ED50 [3]: 2.57 µM
- ED50 [4]: 22.3 µM
- ED50 [5]: 0.813 µM
- ED50 [6]: 0.0138 µM
- ED50 [7]: 59.3 µM
- ED50 [8]: 9.84 µM
- ED50 [9]: 0.0142 µM
- ED50 [10]: 0.0264 µM
- ED50 [11]: 72.6 µM
- ED50 [12]: 0.176 µM
- ED50 [13]: 8.83 µM
- ED50 [14]: 4.85 µM
- ED50 [15]: 4.39 µM
- ED50 [16]: 33.9 µM
- ED50 [17]: 58.3 µM
- ED50 [18]: 84.1 µM
- ED50 [19]: 0.0533 µM
- ED50 [20]: 0.109 µM
- ED50 [21]: 24.5 µM
- ED50 [22]: 5.73 µM
- ED50 [23]: 11.2 µM
- ED50 [24]: 11.2 µM
- ED50 [25]: 13.9 µM
- ED50 [26]: 0.122 µM
- ED50 [27]: 11 µM
- ED50 [28]: 7.65 µM
- ED50 [29]: 11 µM
- ED50 [30]: 9.93 µM
- ED50 [31]: 2.54 µM
- ED50 [32]: 1.94 µM
- ED50 [33]: 0.00621 µM
- ED50 [34]: 0.535 µM
- ED50 [35]: 5000 µM
- ED50 [36]: 11.4 µM
- ED50 [37]: 0.00189 µM
- ED50 [38]: 0.00517 µM
- ED50 [39]: 3.64 µM
- ED50 [40]: 3.03 µM
- ED50 [41]: 4.82 µM
- ED50 [42]: 0.0981 µM
- ED50 [43]: 1.36 µM
- ED50 [44]: 0.00519 µM
- ED50 [45]: 13.8 µM
- ED50 [46]: 0.537 µM
- ED50 [47]: 0.000443 µM
- ED50 [48]: 2.75 µM

SMILES: Cc1ccc(C(=O)Nc2cccc(C(F)(F)F)c2)cc1Nc1nc(-c2cccnc2)nc2nn(C)cc12
- ED50 [1]: 0.13 µM
- ED50 [2]: 0.0603 µM
- ED50 [3]: 1.38 µM
- ED50 [4]: 0.288 µM
- ED50 [5]: 0.928 µM
- ED50 [6]: 4.32 µM
- ED50 [7]: 760 µM
- ED50 [8]: 0.0985 µM
- ED50 [9]: 0.0055 µM
- ED50 [10]: 10.3 µM
- ED50 [11]: 0.099 µM
- ED50 [12]: 0.0501 µM
- ED50 [13]: 0.0171 µM
- ED50 [14]: 43 µM
- ED50 [15]: 0.0174 µM
- ED50 [16]: 0.0569 µM
- ED50 [17]: 0.345 µM
- ED50 [18]: 232 µM
- ED50 [19]: 0.00539 µM
- ED50 [20]: 0.0889 µM
- ED50 [21]: 0.512 µM
- ED50 [22]: 37.2 µM
- ED50 [23]: 0.0178 µM
- ED50 [24]: 0.0257 µM
- ED50 [25]: 6.08 µM
- ED50 [26]: 0.139 µM
- ED50 [27]: 2.23 µM
- ED50 [28]: 2.02 µM
- ED50 [29]: 0.0109 µM
- ED50 [30]: 0.0814 µM
- ED50 [31]: 0.186 µM
- ED50 [32]: 0.0279 µM
- ED50 [33]: 0.0346 µM
- ED50 [34]: 0.0765 µM
- ED50 [35]: 0.0478 µM
- ED50 [36]: 0.06 µM
- ED50 [37]: 0.615 µM
- ED50 [38]: 22.8 µM
- ED50 [39]: 9.35 µM
- ED50 [40]: 7.5 µM
- ED50 [41]: 0.00261 µM
- ED50 [42]: 3.15 µM
- ED50 [43]: 0.85 µM
- ED50 [44]: 5.58 µM
- ED50 [45]: 0.42 µM
- ED50 [46]: 0.193 µM
- ED50 [47]: 0.0051 µM
- ED50 [48]: 6.31 µM
